# Measurements published in PMC7158045 (BMC Plant Biology, 2020).
# Structures can show the parent of a compound that is named as a salt.
# Assays:
# Assay in all cases: biochemical
# ZmDRIK1-R187-P492 = target: T1, ZmDRIK1-R187-P492 (Zea mays, UniProt C0P4K9); conditions: read-out: dTm B, DSF, Boltzmann fit, 0.1% DMSO
# T1 construct: kinase domain, R187-P492
# T1 sequence (C0P4K9 1-514): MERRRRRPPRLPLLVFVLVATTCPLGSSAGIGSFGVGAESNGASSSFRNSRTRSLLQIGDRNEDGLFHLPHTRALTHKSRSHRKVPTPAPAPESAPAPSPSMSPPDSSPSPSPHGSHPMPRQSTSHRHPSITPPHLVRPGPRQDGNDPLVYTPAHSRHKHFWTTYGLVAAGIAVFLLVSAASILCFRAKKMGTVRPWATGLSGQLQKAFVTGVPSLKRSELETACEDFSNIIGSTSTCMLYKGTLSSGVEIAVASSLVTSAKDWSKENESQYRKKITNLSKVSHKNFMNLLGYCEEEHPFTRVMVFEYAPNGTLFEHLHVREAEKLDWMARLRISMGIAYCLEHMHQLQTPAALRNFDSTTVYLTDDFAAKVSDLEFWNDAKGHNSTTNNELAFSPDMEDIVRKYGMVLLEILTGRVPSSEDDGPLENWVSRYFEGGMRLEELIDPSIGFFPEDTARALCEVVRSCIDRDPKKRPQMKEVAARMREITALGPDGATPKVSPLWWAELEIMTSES
# [1] = target: T2, ZmDRIK1 (DROUGHT RESPONSIVE INACTIVE KINASE 1), kinase domain (Zea mays, UniProt C0P4K9); conditions: read-out: dTm B, sheet ZmDRIK1-R187-S514;; DSF, Boltzmann fit, 0.1% DMSO
# T2 construct: gene ZEAMMB73_Zm00001d028770; ZmDRIK1-KD R187-S514 (kinase domain)
# T2 sequence (C0P4K9 187-514): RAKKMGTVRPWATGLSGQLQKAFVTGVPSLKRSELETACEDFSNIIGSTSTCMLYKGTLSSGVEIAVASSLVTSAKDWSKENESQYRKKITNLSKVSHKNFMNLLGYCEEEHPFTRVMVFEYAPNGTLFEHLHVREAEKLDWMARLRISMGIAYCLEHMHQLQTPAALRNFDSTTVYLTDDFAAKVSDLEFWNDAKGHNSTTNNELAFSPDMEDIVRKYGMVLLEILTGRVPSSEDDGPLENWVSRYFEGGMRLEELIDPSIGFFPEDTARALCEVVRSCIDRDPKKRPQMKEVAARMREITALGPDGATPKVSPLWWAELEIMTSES
# ZmDRIK1-K217-P492 = target: T3, ZmDRIK1-K217-P492 (Zea mays, UniProt C0P4K9); conditions: read-out: dTm B, sheet ZmDRIK1-K217-P492;; DSF, Boltzmann fit, 0.1% DMSO
# T3 construct: kinase domain, K217-P492
# T3 sequence (C0P4K9 1-514): T1 sequence (C0P4K9 1-514)
# ZmDRIK1-K217-S514 = target: T4, ZmDRIK1-K217-S514 (Zea mays, UniProt C0P4K9); conditions: read-out: dTm B, sheet ZmDRIK1-K217-S514;; DSF, Boltzmann fit, 0.1% DMSO
# T4 construct: kinase domain, K217-S514
# T4 sequence (C0P4K9 1-514): T1 sequence (C0P4K9 1-514)
SMILES,ΔTm at 10 µM (ZmDRIK1-R187-P492) [°C],ΔTm at 10 µM [1] [°C],ΔTm at 10 µM (ZmDRIK1-K217-P492) [°C],ΔTm at 10 µM (ZmDRIK1-K217-S514) [°C]
Cc1nc(Nc2ncc(C(=O)Nc3c(C)cccc3Cl)s2)cc(N2CCN(CCO)CC2)n1 [Dasatinib],-0.493,-0.74,-1.24,-0.388
CCN1CCN(Cc2ccc(-c3cc4c(N[C@H](C)c5ccccc5)ncnc4[nH]3)cc2)CC1 [AEE788 (NVP-AEE788)],-0.159,-0.878,-0.494,-0.297
CS(=O)(=O)N1CCN(Cc2cc3nc(-c4cccc5[nH]ncc45)nc(N4CCOCC4)c3s2)CC1 [GDC-0941],-0.181,-0.702,-0.665,-0.203
N#CC1(c2ccc(NC(=O)c3cccnc3NCc3ccncc3)cc2)CCCC1 [Apatinib],-0.28,-0.808,-0.944,-0.311
CC(C)NC[C@@H](C(=O)N1CCN(c2ncnc3c2[C@H](C)C[C@H]3O)CC1)c1ccc(Cl)cc1 [GDC-0068],-0.352,-0.503,-1.1,-0.251
N#CC(C#N)=Cc1ccc(O)c(O)c1 [AG-18],-0.457,-1.16,-0.987,-0.556
CC[C@H](Nc1ncnc2[nH]cnc12)c1nc2cccc(F)c2c(=O)n1-c1ccccc1 [CAL-101 (Idelalisib)],-0.326,-0.612,-0.995,-0.31
Cc1c(NC(=O)c2ccc(C(C)(C)C)cc2)cccc1-c1cn(C)c(=O)c(Nc2ccc(C(=O)N3CCOCC3)cc2)n1 [CGI1746],-0.389,-1.61,-1.51,-0.561
Cc1cc(Nc2ncc(Cl)c(Nc3ccccc3S(=O)(=O)C(C)C)n2)c(OC(C)C)cc1C1CCNCC1 [LDK378],-0.522,-0.744,-1.23,-0.431
CCC[C@H](NC(=O)/C(C#N)=C/c1cccc(Br)n1)c1ccccc1 [Degrasyn (WP1130)],-3.03,-5.72,-5.21,-3.28
C=CC(=O)Nc1cc(Nc2nccc(-c3cn(C)c4ccccc34)n2)c(OC)cc1N(C)CCN(C)C [AZD9291],-0.293,-0.497,-1.19,-0.27
COCCOc1ccc2c(c1)ncn2-c1ccc2cccc(N3CCC(N)CC3)c2n1 [CP-673451],-0.00299,-0.398,0.203,0.216
COc1cc(N2CCC(N)CC2)ccc1Nc1ncc(Cl)c(-c2c[nH]c3ccccc23)n1 [AZD3463],0.74,-0.307,-0.184,0.133
Cn1cnc2c(F)c(Nc3ccc(Br)cc3Cl)c(C(=O)NOCCO)cc21 [Selumetinib (AZD6244)],-0.268,-0.69,-1.37,-0.433
Cn1cc(-c2ccc3nnc(C(F)(F)c4ccc5ncccc5c4)n3n2)cn1 [JNJ-38877605],-0.343,-0.758,-1,-0.499
O=C1NC(=O)C(=Cc2ccc(-c3ccc(F)cc3)o2)S1 (stereo in doubt) [CAY10505],-0.47,-0.534,-0.834,-0.62
Cc1c(Cn2c(C)nc3c(C(=O)O)cc(N4CCOCC4)cc32)cccc1C(F)(F)F [GSK2636771],-0.37,-0.589,-0.98,-0.699
CC(=O)Nc1nc(C)c(-c2ccc(Cl)c(S(=O)(=O)NCCO)c2)s1 [PIK-93],-0.0815,-1.08,-0.556,-0.175
COc1ccc2c(Oc3ccc(NC(=O)c4c(C)n(CC(C)(C)O)n(-c5ccccc5)c4=O)nc3)ccnc2c1 [AMG-458],-0.312,-0.675,-0.94,-0.329

SMILES,ΔTm at 10 µM (ZmDRIK1-R187-P492) [°C],ΔTm at 10 µM [1] [°C],ΔTm at 10 µM (ZmDRIK1-K217-P492) [°C],ΔTm at 10 µM (ZmDRIK1-K217-S514) [°C]
O=C(NOCC(O)CO)c1cc(Br)c(F)c(F)c1Nc1ccc(I)cc1F (centres unmarked) [PD318088],0.042,-0.924,-1.33,-0.114
CCCCCCCCCCCCc1ccc(S(=O)(=O)Nc2nncs2)cc1 [PHT-427],-0.255,-1.24,-1.79,-0.296
Nc1nc(Nc2ccc(S(N)(=O)=O)cc2)nn1C(=O)c1c(F)cccc1F [JNJ-7706621],-0.0807,-0.794,-0.924,-0.319
COC(=O)[C@]12CCC(C)(C)C[C@H]1[C@H]1C(=O)C=C3[C@@]4(C)C=C(C#N)C(=O)C(C)(C)[C@@H]4CC[C@@]3(C)[C@]1(C)CC2 [Bardoxolone Methyl],-1.1,-2.89,-4.07,-1.7
C#Cc1cccc(Nc2ncnc3cc(OCCOC)c(OCCOC)cc23)c1 [Erlotinib HCl (OSI-744)],-0.278,-0.54,-1.09,-0.264
COC(=O)c1ccc2c(c1)NC(=O)/C2=C(\Nc1ccc(N(C)C(=O)CN2CCN(C)CC2)cc1)c1ccccc1 [Nintedanib (BIBF 1120)],-0.154,-0.677,-1.32,-0.223
CS(=O)(=O)c1ccc(-c2cnc(N)c(C(=O)Nc3ccccc3)n2)cc1 [VE-821],-0.26,-0.715,-0.928,-0.669
Cc1[nH]c(/C=C2\C(=O)Nc3ccccc32)c(C)c1CCC(=O)O [TSU-68 (SU6668)],-0.199,-0.64,-1.14,-0.226
Oc1ccc(Nc2nc(-c3ccc(Cl)cc3)cs2)cc1 [SKI II],-2.86,0.0373,-0.22,-1.52
CCC(=O)Nc1cccc(Oc2nc(Nc3ccc(N4CCN(C)CC4)cc3OC)ncc2Cl)c1 [WZ4003],-0.432,-0.786,-1.1,-0.358
CCN(CCO)CCCOc1ccc2c(Nc3cc(CC(=O)Nc4cccc(F)c4)[nH]n3)ncnc2c1 [Barasertib (AZD1152-HQPA)],-0.129,-1.11,-0.927,-0.253
CC(C)(C)c1cc(/C=C(\C#N)C(N)=S)cc(C(C)(C)C)c1O [Tyrphostin AG 879],-0.277,-0.339,-0.358,0.259
COc1ccc(COc2cc3oc(=O)c4cc(C(C)O)ccc4c3cc2OC)cc1 (centres unmarked) [Palomid 529 (P529)],-0.229,-0.623,-0.76,-0.134
Nc1ncnc2c1c(-c1cnc3[nH]ccc3c1)nn2C1CCCC1 [PP121],-0.369,-0.595,-1.06,-0.432
O=C1NC(=O)/C(=C/c2ccc3c(c2)OC(F)(F)O3)S1 [AS-604850],-0.284,-0.905,-0.999,-0.526
O=C(NCc1ccccc1)c1csc(Nc2ccncn2)n1 [Thiazovivin],-0.171,-0.845,-0.879,-0.368
Cc1cc(C(C)Nc2ccccc2)c2nc(N3CCOCC3)cc(=O)n2c1 (centres unmarked) [TGX-221],-0.136,-0.944,-0.973,-0.0845
CC(C)(C)c1cc(C=C(C#N)C#N)cc(Br)c1O [AG-1024],-0.615,-0.562,-1.09,-0.233
O=c1cc(N2CCOCC2)oc2c(-c3cccc4c3sc3ccccc34)cccc12 [NU7441 (KU-57788)],-0.309,-0.875,-1.94,-1.59
